The target in assay [1] is Atypical kinase COQ8A, mitochondrial (Homo sapiens) (UniProt Q8NI60). In words: Inhibition of ADCK3 (unknown origin) assessed as residual activity at 1000 nM by KINOMEscan analysis relative to control.
Assay [2] concerns the target T1, Ephrin type-A receptor 1 (Homo sapiens) (UniProt P21709).
T1 sequence (whole entry): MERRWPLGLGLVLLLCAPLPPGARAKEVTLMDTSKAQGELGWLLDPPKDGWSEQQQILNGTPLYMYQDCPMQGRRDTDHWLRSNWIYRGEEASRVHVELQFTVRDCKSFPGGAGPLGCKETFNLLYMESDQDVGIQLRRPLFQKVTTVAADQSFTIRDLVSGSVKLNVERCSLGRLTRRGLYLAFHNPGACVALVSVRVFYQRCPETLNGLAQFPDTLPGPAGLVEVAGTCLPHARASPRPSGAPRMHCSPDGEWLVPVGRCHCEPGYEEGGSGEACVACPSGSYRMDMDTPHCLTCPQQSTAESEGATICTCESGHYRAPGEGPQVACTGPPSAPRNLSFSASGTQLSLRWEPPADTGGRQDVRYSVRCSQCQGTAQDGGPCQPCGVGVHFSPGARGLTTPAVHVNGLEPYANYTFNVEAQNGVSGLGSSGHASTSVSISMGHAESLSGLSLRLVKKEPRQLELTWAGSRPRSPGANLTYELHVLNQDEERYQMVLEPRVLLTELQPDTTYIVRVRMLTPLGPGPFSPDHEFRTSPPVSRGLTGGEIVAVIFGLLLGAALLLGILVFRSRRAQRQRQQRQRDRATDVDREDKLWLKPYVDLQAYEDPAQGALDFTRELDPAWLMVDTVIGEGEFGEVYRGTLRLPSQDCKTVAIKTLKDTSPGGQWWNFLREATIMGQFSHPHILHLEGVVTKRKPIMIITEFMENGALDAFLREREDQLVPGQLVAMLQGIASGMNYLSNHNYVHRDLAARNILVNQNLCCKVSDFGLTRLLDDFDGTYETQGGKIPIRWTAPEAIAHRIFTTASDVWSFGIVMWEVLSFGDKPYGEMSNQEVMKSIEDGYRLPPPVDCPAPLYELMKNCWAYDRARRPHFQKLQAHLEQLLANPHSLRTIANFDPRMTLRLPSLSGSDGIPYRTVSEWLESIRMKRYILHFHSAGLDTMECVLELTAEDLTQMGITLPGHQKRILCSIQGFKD
In words: Inhibition of EPHA1 (unknown origin) assessed as residual activity at 1000 nM by KINOMEscan analysis relative to control.

For assay [3], the target named is Glycogen synthase kinase-3 alpha (Homo sapiens) (UniProt P49840). In words: Inhibition of GSK3A (unknown origin) assessed as residual activity at 1000 nM by KINOMEscan analysis relative to control.
For assay [4], the target named is ALK tyrosine kinase receptor (Homo sapiens) (UniProt Q9UM73). In words: Inhibition of ALK (unknown origin) assessed as residual activity at 1000 nM by KINOMEscan analysis relative to control.
In assay [5] the target is Fibroblast growth factor receptor 4 (Homo sapiens) (UniProt P22455). In words: Inhibition of FGFR4 (unknown origin) assessed as residual activity at 1000 nM by KINOMEscan analysis relative to control.
Assay [6] addresses Ribosomal protein S6 kinase alpha-2 (Homo sapiens) (UniProt Q15349). In words: Inhibition of C-terminal RSK3 […] domain 2 (unknown origin) assessed as residual activity at 1000 nM by KINOMEscan analysis relative to control.
Assay [7] relates to Epidermal growth factor receptor (Homo sapiens), P00533 [T790M]. Description: Inhibition of EGFR T790M mutant (unknown origin) assessed as residual activity at 1000 nM by KINOMEscan analysis relative to control.
In assay [8] the target is Mitogen-activated protein kinase 11 (Homo sapiens) (UniProt Q15759). In words: Inhibition of p38-beta (unknown origin) assessed as residual activity at 1000 nM by KINOMEscan analysis relative to control.
Assay [9] addresses T2, Dual specificity mitogen-activated protein kinase kinase 7 (Homo sapiens) (UniProt O14733).
T2 sequence (whole entry): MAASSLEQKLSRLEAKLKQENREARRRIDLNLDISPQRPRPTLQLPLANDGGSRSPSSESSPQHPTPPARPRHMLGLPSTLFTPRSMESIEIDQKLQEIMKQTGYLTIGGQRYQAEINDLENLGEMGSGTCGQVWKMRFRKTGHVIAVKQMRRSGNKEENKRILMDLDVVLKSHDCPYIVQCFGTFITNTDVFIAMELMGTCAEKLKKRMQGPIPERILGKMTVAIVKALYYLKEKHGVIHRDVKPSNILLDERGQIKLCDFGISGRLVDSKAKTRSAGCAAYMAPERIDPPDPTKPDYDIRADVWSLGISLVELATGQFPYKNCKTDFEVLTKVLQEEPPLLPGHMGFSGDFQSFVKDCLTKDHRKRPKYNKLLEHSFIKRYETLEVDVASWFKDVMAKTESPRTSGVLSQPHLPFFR
In words: Inhibition of MKK7 (unknown origin) assessed as residual activity at 1000 nM by KINOMEscan analysis relative to control.

The target of assay [10] is Rho-associated protein kinase 2 (Homo sapiens) (UniProt O75116). Description: Inhibition of ROCK2 (unknown origin) assessed as residual activity at 1000 nM by KINOMEscan analysis relative to control.
Assay [11] deals with Tyrosine-protein kinase SYK (Homo sapiens) (UniProt P43405). In words: Inhibition of SYK (unknown origin) assessed as residual activity at 1000 nM by KINOMEscan analysis relative to control.
Assay [12] has as its target Tyrosine-protein kinase ABL1 (Homo sapiens) (UniProt P00519). In words: Inhibition of nonphosphorylated ABL1 (unknown origin) assessed as residual activity at 1000 nM by KINOMEscan analysis relative to control.
In assay [13] the target is RAC-beta serine/threonine-protein kinase (Homo sapiens) (UniProt P31751). Description: Inhibition of AKT2 (unknown origin) assessed as residual activity at 1000 nM by KINOMEscan analysis relative to control.
Assay [14] has as its target Serine/threonine-protein kinase PLK2 (Homo sapiens) (UniProt Q9NYY3). In words: Inhibition of PLK2 (unknown origin) assessed as residual activity at 1000 nM by KINOMEscan analysis relative to control.

Rho-associated protein kinase 2 (Homo sapiens), sequence (O75116 whole entry, looked up): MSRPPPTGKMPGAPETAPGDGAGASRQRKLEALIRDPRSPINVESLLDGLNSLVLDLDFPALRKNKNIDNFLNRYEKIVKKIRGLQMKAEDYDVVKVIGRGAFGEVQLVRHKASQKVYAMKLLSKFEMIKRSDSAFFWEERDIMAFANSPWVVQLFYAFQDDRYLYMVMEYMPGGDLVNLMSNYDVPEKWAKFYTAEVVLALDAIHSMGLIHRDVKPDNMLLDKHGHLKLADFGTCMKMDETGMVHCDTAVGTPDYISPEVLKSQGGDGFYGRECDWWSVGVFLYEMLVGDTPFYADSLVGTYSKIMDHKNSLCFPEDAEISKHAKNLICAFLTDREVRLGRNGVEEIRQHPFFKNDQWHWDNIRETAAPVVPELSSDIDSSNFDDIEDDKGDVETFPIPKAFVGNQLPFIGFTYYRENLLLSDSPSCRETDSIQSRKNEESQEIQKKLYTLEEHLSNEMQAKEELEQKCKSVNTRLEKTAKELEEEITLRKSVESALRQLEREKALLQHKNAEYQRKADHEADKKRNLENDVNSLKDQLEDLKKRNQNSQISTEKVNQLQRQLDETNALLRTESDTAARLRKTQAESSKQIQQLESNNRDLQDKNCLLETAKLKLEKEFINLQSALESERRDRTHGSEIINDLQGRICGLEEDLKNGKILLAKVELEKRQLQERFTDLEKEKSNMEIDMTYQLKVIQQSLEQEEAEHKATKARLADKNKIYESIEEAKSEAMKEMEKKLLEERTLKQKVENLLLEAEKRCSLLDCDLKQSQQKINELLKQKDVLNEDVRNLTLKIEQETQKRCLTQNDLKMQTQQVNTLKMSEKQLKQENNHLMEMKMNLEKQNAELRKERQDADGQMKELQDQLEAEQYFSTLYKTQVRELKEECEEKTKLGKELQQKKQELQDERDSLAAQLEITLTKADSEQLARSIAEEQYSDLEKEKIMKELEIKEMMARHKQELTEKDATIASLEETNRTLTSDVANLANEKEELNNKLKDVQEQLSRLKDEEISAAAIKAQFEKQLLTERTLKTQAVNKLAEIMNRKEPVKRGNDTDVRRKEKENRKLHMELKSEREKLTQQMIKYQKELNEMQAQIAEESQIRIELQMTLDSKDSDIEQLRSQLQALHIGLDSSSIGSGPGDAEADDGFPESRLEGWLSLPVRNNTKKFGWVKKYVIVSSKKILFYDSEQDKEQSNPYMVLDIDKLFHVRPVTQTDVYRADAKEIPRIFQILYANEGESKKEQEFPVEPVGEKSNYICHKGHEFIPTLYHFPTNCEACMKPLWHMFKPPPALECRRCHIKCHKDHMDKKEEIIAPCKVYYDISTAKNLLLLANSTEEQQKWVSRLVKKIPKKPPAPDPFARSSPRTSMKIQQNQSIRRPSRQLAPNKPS
Fibroblast growth factor receptor 4 (Homo sapiens), sequence (P22455 22-802 limits assumed): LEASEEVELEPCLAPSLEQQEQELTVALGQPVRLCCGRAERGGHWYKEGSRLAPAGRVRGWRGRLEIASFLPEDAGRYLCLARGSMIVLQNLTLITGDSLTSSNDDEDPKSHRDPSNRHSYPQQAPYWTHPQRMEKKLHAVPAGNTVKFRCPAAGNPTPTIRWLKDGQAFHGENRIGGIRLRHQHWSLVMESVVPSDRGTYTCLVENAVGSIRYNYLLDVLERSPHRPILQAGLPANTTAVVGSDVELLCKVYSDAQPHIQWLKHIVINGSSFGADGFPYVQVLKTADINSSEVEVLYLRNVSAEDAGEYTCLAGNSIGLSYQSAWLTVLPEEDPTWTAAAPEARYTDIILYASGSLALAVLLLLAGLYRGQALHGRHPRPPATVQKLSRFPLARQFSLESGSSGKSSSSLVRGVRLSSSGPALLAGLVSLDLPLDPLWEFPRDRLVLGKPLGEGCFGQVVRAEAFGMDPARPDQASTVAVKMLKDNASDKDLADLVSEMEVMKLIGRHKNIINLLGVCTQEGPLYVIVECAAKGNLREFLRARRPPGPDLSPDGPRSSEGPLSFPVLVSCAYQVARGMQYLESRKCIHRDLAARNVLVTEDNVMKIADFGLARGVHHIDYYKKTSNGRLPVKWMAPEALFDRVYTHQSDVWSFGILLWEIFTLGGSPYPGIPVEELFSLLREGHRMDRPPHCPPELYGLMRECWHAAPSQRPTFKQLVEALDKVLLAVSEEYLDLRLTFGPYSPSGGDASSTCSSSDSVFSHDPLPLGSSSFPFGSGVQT
Glycogen synthase kinase-3 alpha (Homo sapiens), sequence (P49840 2-483 limits assumed): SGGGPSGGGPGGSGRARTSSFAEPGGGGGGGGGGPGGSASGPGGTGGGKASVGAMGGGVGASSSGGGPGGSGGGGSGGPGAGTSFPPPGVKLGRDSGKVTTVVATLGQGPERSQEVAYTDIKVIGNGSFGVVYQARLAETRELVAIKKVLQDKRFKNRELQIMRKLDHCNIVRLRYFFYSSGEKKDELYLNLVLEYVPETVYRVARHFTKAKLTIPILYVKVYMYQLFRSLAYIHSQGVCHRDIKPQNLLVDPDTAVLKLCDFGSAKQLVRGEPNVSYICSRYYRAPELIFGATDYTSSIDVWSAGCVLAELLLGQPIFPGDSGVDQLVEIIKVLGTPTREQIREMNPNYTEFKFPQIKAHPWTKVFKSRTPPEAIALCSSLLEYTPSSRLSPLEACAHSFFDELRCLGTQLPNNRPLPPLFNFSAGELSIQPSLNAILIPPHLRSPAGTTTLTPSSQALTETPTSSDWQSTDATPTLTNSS
Serine/threonine-protein kinase PLK2 (Homo sapiens), sequence (Q9NYY3 whole entry, looked up): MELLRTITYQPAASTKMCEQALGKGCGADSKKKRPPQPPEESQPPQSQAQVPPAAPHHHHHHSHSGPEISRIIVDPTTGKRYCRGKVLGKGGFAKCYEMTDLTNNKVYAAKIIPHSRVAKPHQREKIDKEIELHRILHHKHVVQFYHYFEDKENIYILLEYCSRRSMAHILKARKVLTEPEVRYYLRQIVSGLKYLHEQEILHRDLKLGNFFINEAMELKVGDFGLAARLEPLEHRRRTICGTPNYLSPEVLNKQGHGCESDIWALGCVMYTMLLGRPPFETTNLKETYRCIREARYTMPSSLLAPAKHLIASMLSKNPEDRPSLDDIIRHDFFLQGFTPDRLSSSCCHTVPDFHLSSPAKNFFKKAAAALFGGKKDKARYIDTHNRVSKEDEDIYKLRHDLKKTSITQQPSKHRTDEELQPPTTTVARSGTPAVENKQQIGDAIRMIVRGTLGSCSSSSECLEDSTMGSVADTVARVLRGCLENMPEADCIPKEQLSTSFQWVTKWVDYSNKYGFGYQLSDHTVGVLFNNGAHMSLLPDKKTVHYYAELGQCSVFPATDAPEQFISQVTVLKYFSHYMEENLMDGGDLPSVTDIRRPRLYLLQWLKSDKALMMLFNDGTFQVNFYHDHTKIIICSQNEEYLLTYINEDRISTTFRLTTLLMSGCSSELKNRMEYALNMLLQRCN
ALK tyrosine kinase receptor (Homo sapiens), sequence (Q9UM73 19-1620 limits assumed): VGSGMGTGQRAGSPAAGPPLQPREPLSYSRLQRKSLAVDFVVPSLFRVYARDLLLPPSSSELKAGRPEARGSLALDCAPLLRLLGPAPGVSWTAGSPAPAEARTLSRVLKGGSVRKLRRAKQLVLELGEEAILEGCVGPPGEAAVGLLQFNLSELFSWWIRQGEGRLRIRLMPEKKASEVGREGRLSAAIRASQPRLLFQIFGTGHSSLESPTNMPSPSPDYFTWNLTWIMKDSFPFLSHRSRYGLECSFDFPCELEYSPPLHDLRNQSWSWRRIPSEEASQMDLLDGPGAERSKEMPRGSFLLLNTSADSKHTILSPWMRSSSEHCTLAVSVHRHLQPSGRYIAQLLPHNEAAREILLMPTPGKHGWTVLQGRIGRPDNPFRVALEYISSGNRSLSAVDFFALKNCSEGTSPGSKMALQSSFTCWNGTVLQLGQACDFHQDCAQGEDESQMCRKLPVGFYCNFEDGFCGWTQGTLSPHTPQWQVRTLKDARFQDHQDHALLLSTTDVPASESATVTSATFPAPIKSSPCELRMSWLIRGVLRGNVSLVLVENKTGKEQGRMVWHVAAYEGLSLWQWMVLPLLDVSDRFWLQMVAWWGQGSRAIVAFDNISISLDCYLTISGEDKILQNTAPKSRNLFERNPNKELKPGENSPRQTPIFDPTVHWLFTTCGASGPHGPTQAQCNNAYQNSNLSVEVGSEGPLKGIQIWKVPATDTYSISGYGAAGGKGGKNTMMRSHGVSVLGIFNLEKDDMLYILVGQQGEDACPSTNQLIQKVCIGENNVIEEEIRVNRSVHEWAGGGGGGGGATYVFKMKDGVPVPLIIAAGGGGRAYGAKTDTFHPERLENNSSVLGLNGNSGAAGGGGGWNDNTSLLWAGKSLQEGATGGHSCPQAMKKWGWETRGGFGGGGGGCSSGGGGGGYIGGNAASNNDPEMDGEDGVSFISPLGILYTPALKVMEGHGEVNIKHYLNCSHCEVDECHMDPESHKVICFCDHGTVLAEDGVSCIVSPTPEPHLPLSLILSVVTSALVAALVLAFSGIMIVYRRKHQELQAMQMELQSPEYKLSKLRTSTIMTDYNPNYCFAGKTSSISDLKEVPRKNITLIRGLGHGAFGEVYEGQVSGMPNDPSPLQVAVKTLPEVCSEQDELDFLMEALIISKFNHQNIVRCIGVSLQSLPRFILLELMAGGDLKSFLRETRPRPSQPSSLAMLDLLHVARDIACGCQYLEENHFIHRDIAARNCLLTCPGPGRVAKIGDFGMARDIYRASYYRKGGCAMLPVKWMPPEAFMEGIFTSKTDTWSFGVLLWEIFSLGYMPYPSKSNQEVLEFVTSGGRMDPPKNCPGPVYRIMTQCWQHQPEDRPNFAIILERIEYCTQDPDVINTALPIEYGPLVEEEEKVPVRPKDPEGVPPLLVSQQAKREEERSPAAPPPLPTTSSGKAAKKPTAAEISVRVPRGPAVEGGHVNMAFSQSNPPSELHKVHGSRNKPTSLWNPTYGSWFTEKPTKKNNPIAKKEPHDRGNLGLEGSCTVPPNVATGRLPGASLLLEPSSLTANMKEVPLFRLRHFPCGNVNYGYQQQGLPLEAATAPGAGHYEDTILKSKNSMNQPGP

Consider `COc1cc2nc(C)nc(N[C@H](C)c3cccc(-c4cn[nH]c4)c3)c2cc1OC`, for which the Activity in assay [1] was 98%; in [2] it was 39%; in [3] it was 95%; in assay [4], 100%; in assay [5], 97%; in [6] it was 67%. For the same molecule, the Activity was found to be 87% in assay [7]; 97% in assay [8]; 98% in [9]; 72% in [10]; 76% in assay [11]; 54% in [12]. For the same molecule, the Activity in [13] and in assay [14] was 99% in each case.
Turning to `COc1cc2ncnc(N[C@H](C)c3cccc4ccccc34)c2cc1OC`, the Activity turned out to be 94% in assay [1]; 100% in assay [2]; 70% in [3]; 85% in assay [4]; 98% in assay [5]; 96% in assay [6]. Also, the Activity is 81% in assay [7]; 96% in [8]; 77% in assay [9]; 91% in assay [10]; 100% in assay [11]; 100% in [12]. Besides, the Activity worked out at 100% in assay [13] and 99% in assay [14].

Values taken from ChEMBL document CHEMBL5678818, “Discovery of potent SOS1 inhibitors that block RAS activation via disruption of the RAS-SOS1 interaction” (Proc Natl Acad Sci U S A, 2019).
